Laboratory results: patent publication US11751567B2, “Steroidal piperidone derivative, synthesis method, and use thereof” (NORTHWEST A&F UNIVERSITY, priority 2021, dated 2023)
≈ marks a conversion by molar mass, not a printed value. Read-outs that look alike come from different tables or passages of the source.

Legend:
Assay type in all cases: in vivo
wheat aphids = assay: slide-dip mortality test on aphids (wheat aphids); settings: 24 h, read-out: Corrected mortality (%) Wheat aphid
Protocol: (§1) Inhibitory activities of the steroidal piperidone derivatives listed in Tables 1 and 2 against Myzus persicae, Aphis citricola, Brevicoryne brassicae, and wheat aphids were determined through slide-dip method. Specific process: A specified amount of a compound to be tested was accurately weighed and dissolved with acetone as a solvent, and solutions with concentrations of 50 μg/mL and 75 μg/mL were each prepared with a 0.1% Tween-80 aqueous solution, allowed to stand at room temperature for 0.5 h until the sample was completely dissolved, and stored for later use. Then, adult aphids were fixed with double-sided tape on slides with a small brush. One end of the slide with the aphids was immersed in the test solutions for 5 seconds. The excess liquid was absorbed with absorbent paper, and the mortality rates were calculated 24 h after treatment. Acetamiprid was adopted as a positive control, and a 0.1% Tween-80 aqueous solution was adopted as a negative control. and the results are shown in Table 1.

Myzus persicae = assay: slide-dip mortality test on aphids (Myzus persicae); settings: 24 h, read-out: Corrected mortality (%) Myzus persicae
Protocol: as §1

Aphis citricola = assay: slide-dip mortality and LC50 test on aphids (Aphis citricola); settings: for mortality at 50 µg/mL / mortality at 75 µg/mL: 24 h, read-out: Corrected mortality (%) Aphis citricola; for LC50: read-out: LC50 of inhibitory activity against Aphis citricola
Protocol: as §1

Brevicoryne brassicae = assay: slide-dip mortality test on aphids (Brevicoryne brassicae); settings: 24 h, read-out: Corrected mortality (%) Brevicoryne brassicae
Protocol: as §1

rice planthoppers = assay: foliar spray test against rice planthoppers; settings: 72 h, read-out: Corrected mortality (%) rice planthoppers
Protocol: (§2) The toxic activities of the steroidal piperidone derivatives listed in Table 4 against B. tabaci were tested by a foliar spray method. Specific process: A specified amount of a compound to be tested was accurately weighed and dissolved in acetone, and solutions with concentrations of 50 μg/mL and 75 μg/mL were each prepared with a 0.1% of Tween 80 aqueous solution and stored for later use. The pesticide solution was sprayed on the back side of a cucumber leaf, the cucumber leaf was naturally dried, and B. tabaci to be tested were placed on the cucumber leaf. Thiamethoxam was used as a positive control, and acetone was used as a negative control. Several deaths were observed after 7 d of treatment, and the corrected mortality was calculated.
The toxic activities of the steroidal piperidone derivatives listed in Table 5 against rice planthoppers were tested by a foliar spray method. Imidacloprid was used as a positive control, and acetone was used as a negative control. Several deaths were observed after 3 d of treatment, and the corrected mortality was calculated.

Bemisia tabaci = assay: foliar spray test on cucumber leaf against B. tabaci; settings: 168 h, read-out: Corrected mortality (%) B. tabaci
Protocol: as §2

Tetranychus truncatus = assay: slide dipping mortality test on mites; settings: read-out: Corrected mortality (%) Tetranychus truncatus
Protocol: as §1
The inhibitory activities of the steroidal piperidone derivatives listed in Table 3 on Tetranychus truncatus were tested through slide dipping.

[1] = 50 μg/mL, slide dipping, process as for aphids
[2] = 75 μg/mL, slide dipping, process as for aphids

Structure (SMILES)	mortality at 50 µg/mL (wheat aphids)	mortality at 75 µg/mL (wheat aphids)	mortality at 50 µg/mL (Myzus persicae)	mortality at 75 µg/mL (Myzus persicae)	mortality at 50 µg/mL (Aphis citricola)	mortality at 75 µg/mL (Aphis citricola)	mortality at 50 µg/mL (Brevicoryne brassicae)	mortality at 75 µg/mL (Brevicoryne brassicae)	mortality at 50 µg/mL (rice planthoppers)	mortality at 75 µg/mL (rice planthoppers)	mortality at 50 µg/mL (Bemisia tabaci)	mortality at 75 µg/mL (Bemisia tabaci)	LC50 (Aphis citricola)	mortality at 50 µg/mL (Tetranychus truncatus; [1])	mortality at 75 µg/mL (Tetranychus truncatus; [2])	mortality at 50 µg/mL (Tetranychus truncatus)	mortality at 75 µg/mL (Tetranychus truncatus)
C[C@]12CC[C@H](O)CC1CC[C@@H]1[C@@H]2CC[C@@]2(C)[C@H]1CCC(=O)N2C(=O)c1ccccc1F (stereo partly shown) [Compound (1)-1]	50%	70.3%	53.4%	75.3%	56.2%	78.4%	42.7%	65.5%	42.3%	56.9%	–	–	–	–	–	–	–
C[C@]12CC[C@H](O)CC1CC[C@@H]1[C@@H]2CC[C@@]2(C)[C@H]1CCC(=O)N2C(=O)c1ccc(F)cc1 (stereo partly shown) [Compound (1)-3]	70.5%	90%	69.3%	89.9%	66.3%	85.2%	64%	82.8%	63.3%	71.2%	67.7%	74.7%	24.6 µg/mL (≈ 57.5 µM)	54.3%	70.3%	–	–
Cc1ccc(C(=O)N2C(=O)CC[C@H]3[C@@H]4CC=C5C[C@@H](O)CC[C@]5(C)[C@H]4CC[C@@]32C)cc1 [Compound (2)-9]	85.5%	100%	80.7%	100%	88.8%	100%	78.7%	100%	59.6%	66.2%	63.4%	75.9%	14.2 µg/mL (≈ 33.7 µM)	55.2%	77.5%	–	–
Cc1ccccc1C(=O)N1C(=O)CC[C@H]2[C@@H]3CCC4C[C@@H](O)CC[C@]4(C)[C@H]3CC[C@@]21C (stereo partly shown) [Compound (1)-7]	–	–	–	–	–	–	–	–	36.2%	45.8%	–	–	–	–	–	–	–
CN1COCN(Cc2cnc(Cl)s2)/C1=N\[N+](=O)[O-] [Thiamethoxam, reference compound]	–	–	–	–	–	–	–	–	–	–	59.5%	76.2%	–	–	–	–	–
C[C@]12CC[C@H](O)CC1=CC[C@@H]1[C@@H]2CC[C@@]2(C)[C@H]1CCC(=O)N2C(=O)c1ccc([N+](=O)[O-])cc1 [Compound (2)-13]	–	–	–	–	–	–	–	–	–	–	–	–	–	33.2%	56.8%	–	–
Cc1cccc(C(=O)N2C(=O)CC[C@H]3[C@@H]4CC=C5C[C@@H](O)CC[C@]5(C)[C@H]4CC[C@@]32C)c1 [Compound (2)-8]	54.9%	73.3%	43.2%	69.7%	48.3%	70.5%	51.7%	70.1%	41.9%	52.4%	31.8%	56.3%	–	30.3%	54.4%	–	–
C[C@]12CC[C@H](O)CC1CC[C@@H]1[C@@H]2CC[C@@]2(C)[C@H]1CCC(=O)N2C(=O)c1ccc(Cl)cc1 (stereo partly shown) [Compound (1)-4]	91%	100%	84.1%	100%	89.9%	100%	86.5%	100%	72%	80.4%	72.5%	87.4%	11.9 µg/mL (≈ 26.8 µM)	64.2%	88.6%	–	–
C[C@]12CC[C@H](O)CC1CC[C@@H]1[C@@H]2CC[C@@]2(C)[C@H]1CCC(=O)N2C(=O)c1ccc(C(F)(F)F)cc1 (stereo partly shown) [Compound (1)-12]	24.8%	55.7%	30.7%	57.3%	32.6%	65.9%	29.2%	57.5%	–	–	–	–	–	–	–	–	–
C[C@]12CC[C@H](O)CC1=CC[C@@H]1[C@@H]2CC[C@@]2(C)[C@H]1CCC(=O)N2C(=O)c1ccc(C(F)(F)F)cc1 [Compound (2)-12]	65%	84.3%	59.1%	79.8%	60.7%	83%	61.8%	82.8%	54%	63%	47.5%	58.6%	21.9 µg/mL (≈ 46.1 µM)	33.8%	55.5%	–	–
C[C@]12CC[C@H](O)CC1=CC[C@@H]1[C@@H]2CC[C@@]2(C)[C@H]1CCC(=O)N2C(=O)c1ccccc1Br [Compound (2)-5]	–	–	–	–	–	–	–	–	–	–	–	–	–	43.5%	69.6%	–	–
Cc1cccc(C(=O)N2C(=O)CC[C@H]3[C@@H]4CCC5C[C@@H](O)CC[C@]5(C)[C@H]4CC[C@@]32C)c1 (stereo partly shown) [Compound (1)-8]	–	–	–	–	–	–	–	–	38.4%	53.6%	–	–	–	–	–	–	–
COc1ccc(C(=O)N2C(=O)CC[C@H]3[C@@H]4CC=C5C[C@@H](O)CC[C@]5(C)[C@H]4CC[C@@]32C)cc1 [Compound (2)-10]	–	–	–	–	–	–	–	–	33.2%	36%	48.5%	69.1%	–	–	–	–	–
C[C@]12CC[C@H](O)CC1=CC[C@@H]1[C@@H]2CC[C@@]2(C)[C@H]1CCC(=O)N2C(=O)c1cccc(C(F)(F)F)c1 [Compound (2)-11]	40%	59.7%	40.9%	66.3%	44.9%	72.7%	42.7%	65.5%	35.3%	57.8%	45.4%	58.3%	–	–	–	–	–
C[C@]12CC[C@H](O)CC1CC[C@@H]1[C@@H]2CC[C@@]2(C)[C@H]1CCC(=O)N2C(=O)c1cccc(Br)c1 (stereo partly shown) [Compound (1)-6]	59.9%	80%	60.2%	77.5%	44.9%	78.4%	51.7%	73.6%	45.2%	59.2%	56.1%	67.5%	–	24.9%	55.3%	–	–
C/C(=N\C#N)N(C)Cc1ccc(Cl)nc1 [Acetamiprid, reference compound]	95.5%	100%	94.3%	100%	93.3%	100%	94.4%	100%	–	–	–	–	9.95 µg/mL (≈ 44.7 µM)	–	–	–	–
C[C@]12CC[C@H](O)CC1CC[C@@H]1[C@@H]2CC[C@@]2(C)[C@H]1CCC(=O)N2C(=O)c1cccc(F)c1 (stereo partly shown) [Compound (1)-2]	22.1%	50.4%	26.1%	55.1%	39.3%	61.4%	30.3%	54%	52.1%	60.3%	–	–	–	–	–	–	–
CC(C)(C)c1ccc(CSc2cnn(C(C)(C)C)c(=O)c2Cl)cc1 [Pyridaben, reference compound]	–	–	–	–	–	–	–	–	–	–	–	–	–	–	–	65.3%	89.3%
O=[N+]([O-])NC1=NCCN1Cc1ccc(Cl)nc1 [Imidacloprid, reference compound]	–	–	–	–	–	–	–	–	61.2%	82.3%	–	–	–	–	–	–	–
C[C@]12CC[C@H](O)CC1CC[C@@H]1[C@@H]2CC[C@@]2(C)[C@H]1CCC(=O)N2C(=O)c1cccc(C(F)(F)F)c1 (stereo partly shown) [Compound (1)-11]	30.4%	56.5%	25%	52.8%	25.8%	54.5%	24.7%	50.6%	–	–	–	–	–	–	–	–	–
